Laboratory results as given in patent US20250319061A1, “COMBINATION TREATMENT FOR ADENOCARCINOMA” (The General Hospital Corporation, priority 2022, published 2025).

Assays:
[1] = system: PDAC monoculture and PDAC/CAF co-culture; assay: Combinatorial drug treatment, percent killing and Bliss synergy; format: cell-based, human
Source text: FIGS. 9A-E. Combinational drug treatment (Oxo+FFX) in PDAC alone or PDAC+CAF coculture. […] (b) Combination drug treatments of PDAC 3 and PDAC 6, as monoculture or co-culture with CAF1. Values indicate percent killing, as compared to untreated cells, such that 0 indicates no killing and 100 indicates all cells killed. (c) Bliss plots of synergistic activity between 5z-7-oxozeaenol and FFX, where positive values represent synergistic activity, negative values represent anti-synergistic activity, and 0 represents no synergy. Synergy data are based on values from 8B. (d) Combination drug treatments of PDAC 8 and PDAC 9, as monoculture or co-culture with CAF1. Values indicate percent killing, as compared to untreated cells, such that 0 indicates no killing and 100 indicates all cells killed. (e) Combination drug treatments of CAF1 monoculture. Values indicate percent killing, as compared to untreated cells, such that 0 indicates no killing and 100 indicates all cells killed. FIG. 10. Combinational drug treatment (Losartan+FFX) in PDAC alone or PDAC+CAF coculture. Combination drug treatments of PDAC 3 and PDAC 6, as monoculture or co-culture with CAF1. Values indicate percent killing, as compared to untreated cells, such that 0 indicates no killing and 100 indicates all cells killed. In order to evaluate whether oxo could synergize with FOLFIRINOX, we performed combinatorial drug treatment in PDAC monoculture and PDAC/CAF co-culture settings (FIG. 9A). […] In order to assess for synergistic activity between Oxo and FOLFIRINOX, we used the Bliss independence model to analyze our drug combination experiments (Bliss, 1939; Yadav et al., 2015).

CAF1 monoculture = assay: Dose response and combination treatment in CAF1 monoculture; format: cell-based; conditions: combination with FFX
Source text: FIGS. 7A-C. […] FIGS. 8A-C. […] Values indicate percent killing, as compared to untreated cells, such that 0 indicates no killing and 100 indicates all cells killed. (e) Combination drug treatments of CAF1 monoculture. Values indicate percent killing, as compared to untreated cells, such that 0 indicates no killing and 100 indicates all cells killed. […] In order to evaluate whether oxo could synergize with FOLFIRINOX, we performed combinatorial drug treatment in PDAC monoculture and PDAC/CAF co-culture settings (FIG. 9A). […] In order to assess for synergistic activity between Oxo and FOLFIRINOX, we used the Bliss independence model to analyze our drug combination experiments (Bliss, 1939; Yadav et al., 2015).

[2] = system: QM and E PDAC monoculture and co-culture with CAF1; assay: FFX dose response in PDAC monoculture and co-culture with CAF1; format: cell-based, human; conditions: both monocultures and CAF co-culture conditions
Source text: (a) Dose response curves in QM and E PDAC monoculture and co-culture with CAF1, as well as CAF1 monoculture, following FFX treatment. (b) FFX IC50 for QM and E PDAC monoculture versus co-culture with CAF1. […] (a) Dose response curves in QM and E PDAC monoculture following combination 5z-7-oxozeaenol and FFX treatment. (b) Dose response curves in QM and E PDAC co-culture with CAF1 following combination 5z-7-oxozeaenol and FFX treatment. (c) Dose response curves in CAF1 monoculture following combination 5z-7-oxozeaenol and FFX treatment. […] (a) Dose response curves in QM and E PDAC monoculture following combination losartan and FFX treatment. (b) Dose response curves in QM and E PDAC co-culture with CAF1 following combination losartan and FFX treatment. (c) Dose response curves in CAF1 monoculture following combination losartan and FFX treatment. PDAC cells were co-cultured with fibroblasts (CAF) to more closely mimic the tumor microenvironment.

PDAC cell lines [3] = assay: Clonogenic assay (crystal violet, colony area by Image J); format: cell-based, human; conditions: 2 weeks
Experimental: (§1) FIGS. 3A-D. Graphs showing relative cell growth of (a) QM and (b) E PDACs in 3D condition upon FFX and/or Oxo treatment with indicated concentrations for 2 weeks. Cell viability was measured using CellTiter Glo assay. Images showing growing PDACs (in 3D) under these conditions. (c) Graphs with results for clonogenic assay upon FFX and/or Oxo treatment with indicated concentrations for 2 weeks. Then, cells were fixed with 3.7% PFA and stained with crystal violet. Relative colony area was measured using Image J. (d) Images with 2D (Boyden chamber) and 3D invasion assays (type I collagen embedded) of PDAC cell lines incubated with Oxo for 3 days.
FIGS. 4A-F. Effects of TAK1 Knockout in PDAC EMT Plasticity. (a) Western blots showing complete ablation of TAK1 across PDAC cell lines. (b) Heatmaps based on RNA-ISH and total RNA-seq showing EMT signatures in TAK1 KO PDAC6 and PDAC9 cell lines. (c) Clonogenic assays for WT (non-targeting single guide RNA, sgRNA) and TAK1 KO cell lines treated with FFX for 2 weeks. Colony area was determined by Image J. (d) Images with 2D invasion assay (Boyden chamber) in TAK1 KO PDAC cell lines. (e) Graphs confirming functional ablation of TAK1 represented by TAK1 downstream activity of p-MEK1/2 and p-ERK1/2 under TGFbeta stimulation. (f) Graphs with results for clonogenic assay upon FFX and/or Takinib treatment with indicated concentrations for 2 weeks.

[4] = system: patient-derived PDAC cell lines; assay: RNA-ISH and total RNA sequencing of E/QM (EMT) signatures after Oxo treatment; format: cell-based, human; conditions: for E gene expression (RNA-ISH and RNA sequencing) / QM gene expression (RNA-ISH and RNA sequencing): Oxo 10 μM, 10 days, across PDAC cell lines
Experimental: (c) PDAC3, 9 and 6 cells were treated with Oxo (10 μM) for 10 days in tumorsphere (3D) condition.

MEK = conditions: cited from earlier work
QM and E PDACs = assay: Relative cell growth in 3D condition upon FFX and/or Oxo treatment (CellTiter Glo); format: cell-based, human; conditions: for killing of / sensitivity to FFX of QM cells when Oxo is added to FOLFIRINOX: QM cells compared to E cells, 3D, 2 weeks
Experimental: Cell viability was measured using CellTiter Glo assay. […] Then, cells were fixed with 3.7% PFA and stained with crystal violet. Relative colony area was measured using Image J. (d) Images with 2D (Boyden chamber) and 3D invasion assays (type I collagen embedded) of PDAC cell lines incubated with Oxo for 3 days.

TAK1 = target: T1, TAK1 (Homo sapiens, UniProt O43318); conditions: cited from earlier work
T1 sequence (O43318 1-606): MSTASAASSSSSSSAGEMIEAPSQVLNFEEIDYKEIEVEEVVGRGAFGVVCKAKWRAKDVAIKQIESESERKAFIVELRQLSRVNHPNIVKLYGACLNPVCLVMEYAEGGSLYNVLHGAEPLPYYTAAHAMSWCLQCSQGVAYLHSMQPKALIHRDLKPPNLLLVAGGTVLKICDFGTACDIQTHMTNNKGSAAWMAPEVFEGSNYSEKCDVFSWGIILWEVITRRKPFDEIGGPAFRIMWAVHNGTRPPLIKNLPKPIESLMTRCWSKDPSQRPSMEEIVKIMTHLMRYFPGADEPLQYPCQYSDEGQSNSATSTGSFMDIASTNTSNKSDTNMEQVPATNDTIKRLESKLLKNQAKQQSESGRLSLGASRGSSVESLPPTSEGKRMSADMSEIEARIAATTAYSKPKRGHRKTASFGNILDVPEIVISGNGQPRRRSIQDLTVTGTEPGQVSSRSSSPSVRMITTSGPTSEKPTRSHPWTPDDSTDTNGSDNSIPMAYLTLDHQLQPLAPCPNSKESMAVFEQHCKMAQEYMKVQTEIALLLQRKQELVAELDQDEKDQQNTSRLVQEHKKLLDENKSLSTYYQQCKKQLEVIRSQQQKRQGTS
T1 sequence (Q15750 1-504 partner): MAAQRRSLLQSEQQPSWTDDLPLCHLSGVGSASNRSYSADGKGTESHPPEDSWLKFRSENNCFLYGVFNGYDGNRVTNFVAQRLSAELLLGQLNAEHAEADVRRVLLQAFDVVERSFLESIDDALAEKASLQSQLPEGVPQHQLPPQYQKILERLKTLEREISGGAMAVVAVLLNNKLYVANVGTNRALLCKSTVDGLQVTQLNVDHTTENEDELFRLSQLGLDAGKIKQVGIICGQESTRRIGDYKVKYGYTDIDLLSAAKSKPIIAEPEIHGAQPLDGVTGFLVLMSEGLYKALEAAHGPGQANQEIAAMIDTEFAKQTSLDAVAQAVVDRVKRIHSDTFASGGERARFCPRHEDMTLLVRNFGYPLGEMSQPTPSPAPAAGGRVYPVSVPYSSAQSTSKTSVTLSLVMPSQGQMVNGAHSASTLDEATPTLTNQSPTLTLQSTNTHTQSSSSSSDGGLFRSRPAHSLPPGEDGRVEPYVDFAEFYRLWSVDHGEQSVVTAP

PDAC cell lines [5] = assay: 2D (Boyden chamber) and 3D (type I collagen embedded) invasion assays; format: cell-based, human; conditions: Oxo for 3 days
Experimental: as §1

FLT3 = target: T2, FLT3 (Homo sapiens, UniProt P36888); conditions: cited from earlier work
T2 sequence (P36888 27-993): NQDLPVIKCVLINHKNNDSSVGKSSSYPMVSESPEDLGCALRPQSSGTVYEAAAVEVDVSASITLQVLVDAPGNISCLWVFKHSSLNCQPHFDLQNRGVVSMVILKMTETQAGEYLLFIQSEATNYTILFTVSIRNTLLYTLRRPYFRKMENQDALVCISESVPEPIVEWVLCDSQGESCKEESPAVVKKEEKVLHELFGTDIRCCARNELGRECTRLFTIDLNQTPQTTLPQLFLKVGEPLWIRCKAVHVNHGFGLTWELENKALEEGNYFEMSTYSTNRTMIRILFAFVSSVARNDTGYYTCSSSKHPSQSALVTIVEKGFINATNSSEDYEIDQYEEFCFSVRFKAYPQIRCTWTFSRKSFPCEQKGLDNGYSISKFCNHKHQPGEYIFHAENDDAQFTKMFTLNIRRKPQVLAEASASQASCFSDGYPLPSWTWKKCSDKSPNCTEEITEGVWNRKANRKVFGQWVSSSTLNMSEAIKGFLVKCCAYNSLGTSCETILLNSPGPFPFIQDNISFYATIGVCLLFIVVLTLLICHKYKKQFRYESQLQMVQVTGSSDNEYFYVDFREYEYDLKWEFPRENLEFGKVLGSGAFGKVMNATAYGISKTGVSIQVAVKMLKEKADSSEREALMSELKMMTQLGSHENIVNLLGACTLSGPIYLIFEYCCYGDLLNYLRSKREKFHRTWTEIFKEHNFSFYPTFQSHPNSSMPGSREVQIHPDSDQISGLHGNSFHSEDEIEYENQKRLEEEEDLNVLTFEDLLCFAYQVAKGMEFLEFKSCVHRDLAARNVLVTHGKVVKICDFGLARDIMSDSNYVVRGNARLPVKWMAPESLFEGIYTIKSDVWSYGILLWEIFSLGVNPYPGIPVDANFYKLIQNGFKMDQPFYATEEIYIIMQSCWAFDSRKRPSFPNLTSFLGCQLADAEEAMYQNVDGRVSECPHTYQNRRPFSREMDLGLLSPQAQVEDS

Compound: CCCCc1nc(Cl)c(CO)n1Cc1ccc(-c2ccccc2-c2nn[nH]n2)cc1 [Losartan, reference compound]
- additional killing when combined with FOLFIRINOX ([1]; PDAC 3 and PDAC 6, monoculture or co-culture with CAF1): did not demonstrate any additional killing
- cell growth when combined with FOLFIRINOX ([1]; low FOLFIRINOX settings): increased cell growth
- effect on CAFs alone (CAF1 monoculture): no effect
- effect on PDAC cell response to FOLFIRINOX [2]: did not affect

Compound: COc1cc(O)c2c(c1)/C=C/C[C@H](O)[C@H](O)C(=O)/C=C\C[C@H](C)OC2=O [Oxo, (5z)-7-oxozeaenol]
- colony formation (PDAC cell lines [3]; Oxo-treated PDACs): significant reduction
- E gene expression (RNA-ISH and RNA sequencing) ([4]; listed as (5z)-7-Oxozeaenol): enrichment
- QM gene expression (RNA-ISH and RNA sequencing) ([4]; listed as (5z)-7-Oxozeaenol): decreased
- E gene expression (RNA-ISH and RNA sequencing) ([4]; listed as oxo): increased
- QM gene expression (RNA-ISH and RNA sequencing) ([4]; listed as oxo): significantly suppressed
- mesenchymal gene expression (Hallmark EMT geneset) ([4]; PDAC 3, 6, and 8): significantly decreased
- mesenchymal gene expression (Hallmark EMT geneset) ([4]; PDAC 9): numerically decreased
- global mesenchymal gene expression (200 genes of Hallmark EMT geneset) ([4]; all lines tested, with vs without Oxo): numerically lower
- cell killing (cell viability) ([1]; increasing doses, 3 days, monoculture and co-culture): dose-dependent cell killing
- effect on CAFs alone (CAF1 monoculture): little effect
- inhibition of MEK (MEK): inhibit
- sensitivity to Oxo as a single agent (QM and E PDACs; E cells BxPC3 and DAN-G): sensitive
- killing of / sensitivity to FFX of QM cells when Oxo is added to FOLFIRINOX (QM and E PDACs): synergistic increased killing
- killing of / sensitivity to FFX of QM cells when Oxo is added to FOLFIRINOX (QM and E PDACs; listed as (5z)-7-Oxozeaenol): synergistically increased
- inhibition of TAK1 (TAK1): inhibit
- effect on PDAC cell response to FOLFIRINOX [2]: sensitized
- invasiveness / invasion (PDAC cell lines [5]): significant reduction
- migratory abilities / migration (PDAC cell lines [5]): significant reduction
- invasiveness / invasion (PDAC cell lines [5]; listed as (5z)-7-Oxozeaenol): reduced
- migratory abilities / migration (PDAC cell lines [5]; listed as (5z)-7-Oxozeaenol): reduced
- inhibition of FLT3 (FLT3): inhibit

Compound: CCCn1/c(=N/C(=O)c2cccc(C(N)=O)c2)[nH]c2ccccc21 [Takinib, reference compound]
- sensitization of FOLFIRINOX response (clonogenic assay) (PDAC cell lines [3]; QM PDAC cells, FFX and/or Takinib): not able to sensitize
- inhibition of TAK1 (TAK1): selective inhibitor
